Key:
termite gut symbionts = settings: reference 34; cited from earlier work
tGNBP-2 [1] = assay: β(1,3)-glucanase activity assay (flow cytometric microsphere assay, zymogram); assay type: biochemical, N. corniger; settings: dose/response, FIG. 5C
Method: (§1) FIG. 2 provides results from a microsphere-based flow cytometric assay for β(1,3)-glucanase activity. Laminarin was labeled at the reducing end with rhodamine green X-succinyl ester, stably adsorbed on 3.0μ-diameter polystyrene microspheres in carbonate/bicarbonate buffer at pH=9.6 and washed in 100 mM sodium acetate pH 5.5. Samples were then incubated with the fluorescent microspheres for varying time periods starting from 15 min and analyzed by flow cytometry. Purified β(1,3)-glucanase at 100 μg/mL (0.1 mU/mL) and sodium acetate buffer alone were used as positive and negative controls, respectively. Finally, fluorescence data were transformed to % activity and plotted vs. samples or concentrations. β(1,3)-glucanase activity was measured by a gel electrophoresis assay (39) and by a flow cytometric method developed (FIG. 2). Briefly, samples were run on Carboxymethyl Curdlan REmazol Brilliant Blue (CN-Curdlan-RBB, Lowe Biochemica, Germany). […] Samples were mixed with 1 μL of the microsphere suspension, incubated for 15-30 minutes at 37° C. and analyzed by flow cytometry. Commercially available purified β(1,3)-glucanase from Helix pomatia or Bacilus subtilis was used at 0.1 mU/mL as positive control and results were expressed as % activity of this control.

M. anisopliae conidia = assay: Antifungal assays and combinatorial cytotoxicity mapping on conidia; assay type: cell-based, Metarhizium anisopliae
Method: This mix was incubated for 18-24 hours at 25° C., then plated onto potato dextrose agar 100×15 mm plates and supplemented with 50 μg/mL ampicillin CFUs were counted following a 4-day incubation at 25° C. Femtoliter changes in conidial cell volume were directly measured by flow cytometry. Samples of M. anisopliae conidia in sodium acetate (0.1M, pH 5.5) were incubated in 384 well plates with samples from HPLC fractions in different combinations (F1+F1, F1+F2, F1+F3 . . . F2+F2, F2+F3 . . . F3+F3 . . . , 10 μL of each fraction) overnight at 25° C. and analyzed by flow cytometry. tGNBP-2 was depleted from 250 μL of each fraction as described above, and supernatants were collected and used for the assay.

other β-glucanases = assay: β(1,3)-glucanase activity assay, tGNBP-2-depleted termite lysate; assay type: biochemical, N. corniger; settings: tGNBP-2-depleted lysate, FIG. 5C
Method: as §1

[2] = system: SAPK/JNK signaling in hemocytes; assay: Intracellular flow cytometry for SAPK/JNK phosphorylation in termite hemocytes; assay type: cell-based, N. corniger
Method: N. corniger workers, large workers or soldiers (whole termites or isolated tissues) were surface sterilized (brief wash with 5% hypochlorite and 3 washes with sterile water) and homogenized in acetate buffer (200 mM, pH 5.0, 4 μL/termite) with Biomasher® columns (pore size 80-145μ, […], San Carlos, Calif.) according to the manufacturer's instructions. Cuticular washes were prepared by gently agitating chilled workers in 0.1% Tween 80 for 5 seconds (10 μL/worker). Wash samples were concentrated with a P10 Microcon® filter (Millipore, Billerica, Mass.). Termite hemocytes were collected from hemolymph drawn from 10 chilled N. corniger workers (1 μL/termite) using a micropipette and kept in ice-cold Burns-Tracy saline as described previously (37). Whole cell preparations were obtained by gentle trituration of termites in ice-cold Burns-Tracy saline. Hemocyte staining was performed in 0.1% w/v BSA, 0.01% w/v NaN3 in PBS, 30 min on ice per antibody with a single wash with buffer between antibodies (38). Primary antibodies: anti-tGNBP-2 (5 μg/mL) or rabbit IgG (5 μg/mL, Sigma, St. Louis, Mo.); secondary antibody: anti-rabbit PE (1:400, Invitrogen, Carlsbad, Calif.). […] Flow cytometry was performed on a Beckman-Coulter Cell Lab QuantaTM SC MPL-automated flow cytometer and analyzed with Quanta AnalysisTM software.

tGNBP-2 expression [3] = assay: Induction of tGNBP-2 by laminarin challenge on isolated termite cells, Western blot; assay type: cell-based, N. corniger; settings: 20 mM, FIG. 5E
Method: N. corniger workers, large workers or soldiers (whole termites or isolated tissues) were surface sterilized (brief wash with 5% hypochlorite and 3 washes with sterile water) and homogenized in acetate buffer (200 mM, pH 5.0, 4 μL/termite) with Biomasher® columns (pore size 80-145μ, […], San Carlos, Calif.) according to the manufacturer's instructions. Cuticular washes were prepared by gently agitating chilled workers in 0.1% Tween 80 for 5 seconds (10 μL/worker). Wash samples were concentrated with a P10 Microcon® filter (Millipore, Billerica, Mass.). Termite hemocytes were collected from hemolymph drawn from 10 chilled N. corniger workers (1 μL/termite) using a micropipette and kept in ice-cold Burns-Tracy saline as described previously (37). Whole cell preparations were obtained by gentle trituration of termites in ice-cold Burns-Tracy saline. Anti-tGNBP-2 antibodies were raised in rabbits and purified by standard methods (GenScript, Piscataway, N.J.). Antibodies were covalently linked to 1.0μ diameter Dynabeads® MyOneTM carboxylic acid functionalized magnetic beads (Invitrogen) according to the manufacturer's instructions. Fresh termite extract was diluted 1:1 with IP buffer (25 mM Tris-HCl pH 7.6, 150 mM NaCl, 1% v/v NP-40, 1% v/v protease inhibitor cocktail), and incubated with beads for 1 hour at RT. […]

[4] = system: termites infected with M. anisopliae; assay: In-vivo survival and exposure assays; set-up: species or system N. corniger
Method: Conidia (approx. 3×10^7/mL) were centrifuged at 12,000×g for 1 minute and then suspended in 600 μL 0.1% Tween 80 by vortexing. Two groups of 12 large workers were exposed to filter paper (Watman 5) moistened with these suspensions in 35×15 mm petri dishes for 20 hours. The filter paper was replaced with sterile water-moistened filter paper and dead termites were removed after a daily census of survivorship. tGNBP-2 treatment was performed with conidia suspended in a sample of the immunoprecipitated protein overnight at 25° C., followed by extensive washing in PBS containing 0.1% Tween 80. Dead termites were removed daily, surface sterilized with 70% ethanol and incubated in sterile plates at RT for 4 days for post mortem analysis. For exposure to laminarin or LPS, filter papers were moistened with 300 μL of 0.5 mg/mL or 5 mg/mL solutions of either carbohydrate. Termites were kept on moist filter paper for 24 hours prior to exposure with conidia (10^7/mL). Controls included termites that were not exposed to sugars and/or conidia (0.1% Tween 80). Data were analyzed by Mann-Whitney U test and Wilcoxon Signed Rank tests with Bonferroni corrections for multiple testing. Termite survival data were analyzed by Cox Regression Analysis. Flow histogram SDs were calculated using software produced half-peak coefficients of variance (% HPCV×mean). Data are presented as means±SD.

tGNBP-2 [5] = assay: In-vitro binding interference assay with FITC-labeled LPS; set-up: species or system N. corniger; settings: increasing concentrations, FIG. 5A
Method: Isolated tGNBP-2 or rhCD14 (R&D Systems, Minneapolis, Minn.) were linked to 3.0μ diameter polystyrene beads (Polysciences) by a 3-hour incubation in boric acid (0.1M, pH 8.5) followed by 3 washes in cold PBS containing 0.1% v/v rabbit serum. Formaldehyde-inactivated pathogenic strains were labeled with FITC as previously described (41). Beads were incubated with labeled pathogens in buffer at 37° C. for 30 minutes and analyzed by flow cytometry. For interference assays, tGNBP-2-adsorbed beads were incubated with either LPS or laminarin at various concentrations, then directly stained with FITC-labeled LPS (Sigma) and analyzed by FACS.

tGNBP-2 expression [6] = assay: tGNBP-2 expression following exposure of termites to LPS or laminarin; assay type: in vivo, N. corniger; settings: 0.5 or 5 mg/mL, FIG. 4F
Method: Anti-tGNBP-2 antibodies were raised in rabbits and purified by standard methods (GenScript, Piscataway, N.J.). Antibodies were covalently linked to 1.0μ diameter Dynabeads® MyOne™ carboxylic acid functionalized magnetic beads (Invitrogen) according to the manufacturer's instructions. Fresh termite extract was diluted 1:1 with IP buffer (25 mM Tris-HCl pH 7.6, 150 mM NaCl, 1% v/v NP-40, 1% v/v protease inhibitor cocktail), and incubated with beads for 1 hour at RT. Beads were isolated, washed with IP buffer, and eluted with a commercial neutral pH buffer (Pierce, Rockford, Ill.). Eluate was desalted and concentrated using a centrifugal column (Vivaspin 10K, Sartorius, Goettingen, Germany) and reconstituted in sodium acetate (0.1M, pH 5.5). SDS-PAGE and western blots were performed and developed by standard procedures; loading amounts were validated by BCA assay. Anti-tGNBP-2 was used at 2.5 μg/mL followed by anti-rabbit HRP (Cell Signaling) at 1:1000. Blots were visualized on a Kodak ImageStation 2000R. […] Conidia (approx. 3×10^7/mL) were centrifuged at 12,000×g for 1 minute and then suspended in 600 μL 0.1% Tween 80 by vortexing. Two groups of 12 large workers were exposed to filter paper (Watman 5) moistened with these suspensions in 35×15 mm petri dishes for 20 hours. […]

Row | Molecule | blocking of gut symbiont pathways for polysaccharide utilization (termite gut symbionts) | blocking of the β(1,3)-glucanase activity of tGNBP-2 (tGNBP-2 [1]) | direct toxic effect on conidia (M. anisopliae conidia) | effect on other β-glucanases (other β-glucanases) | hemocyte population whose activation is affected ([2]; two hemocyte populations expressing tGNBP-2) | SAPK/JNK phosphorylation activation response of hemocytes ([2]; β(1,3)-D-glucan challenge, FIG. 5D) | induction of tGNBP-2 by laminarin challenge (tGNBP-2 expression [3]) | susceptibility to infection with tGNBP-2-treated conidia ([4]; conidia treated with isolated tGNBP-2 prior to infection) | mortality of termites in the absence of active infection ([4]; no infection) | mortality of termites infected with M. anisopliae ([4]; treated for 24 hours prior to infection, FIG. 6) | interference with fluorescent LPS binding to bead-linked tGNBP-2 (tGNBP-2 [5]) | tGNBP-2 expression following exposure (tGNBP-2 expression [6]) | resistance to M. anisopliae infection ([4]; termites exposed to 0.5 or 5 mg/mL for 24 hours prior to conidia, FIG. 4E)
1 | O=C1O[C@H](CO)[C@@H](O)[C@H](O)[C@H]1O [GDL, D-δ-gluconolactone] | not blocked | efficiently blocked | no direct toxic effect | left other β-glucanases intact | affected only the activation of granular hemocytes | inhibited this activation response | blocks induction | restored susceptibility to infection | caused accelerated mortality | accelerated mortality |  |  | 
2 | laminarin |  |  |  |  |  |  |  |  |  |  | does not interfere | significant upregulation | improved resistance

— patent US9006212B2, “Compositions and methods for pest control” (Massachusetts Institute of Technology, priority 2009, dated 2015)
